Patent publication US20230181536A1, “ANTICANCER COMBINATION THERAPY WITH N-(1-ACRYLOYL-AZETIDIN-3-YL)-2-((1H-INDAZOL-3-YL)AMINO)METHYL)-1H-IMIDAZOLE-5-CARBOXAMIDE INHIBITOR OF KRAS-G12C” (TAIHO PHARMACEUTICAL CO., LTD., priority 2020, published 2023)

What was measured:
NCI-H358 cells = assay: Growth inhibition activity on KRAS-G12C mutant cell line (NCI-H358) (in vitro); format: cell-based; details: Homo sapiens, 72 h, 3-day culture in the presence of the compound, CellTiter-Glo2.0
Method: Test Example 3: A Measurement Test of Growth Inhibition Activity on KRAS-G12C Mutant Cell Line (NCI-H358) (In Vitro) NCI-H358 cells (ATCC, Cat#: CRL-5807), which are a KRAS-G12C mutant human lung cancer cell line, were suspended in a 10% fetal bovine serum-containing RPMI1640 medium (manufactured by Fujifilm Wako Pure Chemical Corporation.). The cell suspension was seeded into each well of a 384-well flat-bottom microplate and cultured in an incubator containing 5% CO2 gas at 37° C. for 1 day. The test compound was dissolved in DMSO and diluted with DMSO to give a concentration 500 times the final concentration. The solution of the test compound in DMSO was diluted with the medium used for suspending cells and added to each well of the cell-culture plate to give a DMSO final concentration of 0.2%, followed by culture in an incubator containing 5% CO2 gas at 37° C. for another 3 days. The cell count after 3-day culture in the presence of the compound was measured using CellTiter-Glo2.0 (manufactured by Promega Corporation) in accordance with the protocol recommended by Promega Corporation. The growth inhibition rate was calculated from the following equation, and the concentration of the test compound at which 50% inhibition was achieved (IC50 (nM)) was determined. […] Growth Inhibition Rate (%)=(C−T)/(C)×100 T: the emission intensity in a well into which a test compound was added. C: the emission intensity in a well into which a test compound was not added.

KRAS G12C = target: T1, KRAS G12C (Homo sapiens, UniProt P01116, G12C); assay: Inhibitory activity on the KRAS G12C nucleotide (GDP-GTP) exchange reaction; format: biochemical; details: Bodipy FL GDP-bound KRAS G12C 25 nM; preincubation at 25° C. for 4 hours; SOS1 100 nM, GppNHp 1 μM, reaction for 30 minutes
T1 construct: KRAS G12C (amino acid region: 1-169)
Procedure, shortened: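 Bodipy FL-GDP-loaded KRAS G12C (aa 1-169, 25 nM) preincubated with compound 4 h at 25 °C in pH 7.5 Tris buffer, 5% DMSO; exchange started with SOS1 (aa 564-1049, 100 nM) and 1 μM GppNHp for 30 min. Fluorescence change (ex 485/em 520 nm) normalized to DMSO and no-GppNHp controls; IC50 calculated.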

[1] = target: G12C mutant of inactive KRAS (GDP) (Homo sapiens, UniProt P01116, G12C); details: WO 2014/152588 and Cancer Discov. 6 (3), 316-29, 2016; cited from earlier work
[2] = test system: cancer cells with KRAS G12C mutation; details: WO 2014/152588 and Cancer Discov. 6 (3), 316-29, 2016; cited from earlier work
[3] = test system: tumor-bearing mice expressing KRAS G12C mutation; details: WO 2015/054572 and Cell. 172 (3), 578-89, 2018; cited from earlier work
G12C K-Ras4B (1-169) = target: T2, G12C K-Ras4B (1-169) (Homo sapiens, UniProt P01116, G12C); assay: Test of compounds to determine whether they bind to KRASG12C (LC-MS compound binding rate); details: final compound concentration of 2 μM, 1 μM protein, 25° C. for 2 hours
T2 construct: G12C K-Ras4B (1-169)
Method: Test Example 1: A Test of Compounds to Determine Whether they Bind to KRASG12C
Test compounds were prepared in the form of a 10 mM DMSO solution.
Wt K-Ras4B (1-169) and G12C K-Ras4B (1-169) proteins were mixed and diluted with a buffer (1×TBS, 0.1 mM TCEP) to prepare individual 1 μM protein solutions. A 10 mM test compound was diluted tenfold with DMSO to make a 1 mM solution, and then diluted fivefold with DMSO to make a 200 μM solution. The 200 μM solution was further diluted fivefold to make a 40 μM solution. When the final compound concentration was […], 1 μL of a 200 μM test compound was added to 19 μL of a 1 μM protein solution. When the final compound concentration was 2 μM, 1 μL of a 40 μM test compound was added to 19 μL of a 1 μM protein solution. The mixtures were stored in an incubator at 25° C. for 2 hours, and 80 μL of a 1×TBS solution containing 0.2% formic acid was added thereto to end the reaction, followed by LC-MS measurement. LC-MS measurement was performed using Xevo G2-S Q-Tof manufactured by Waters, and reverse-phase chromatography was performed with a desalting column. A mass spectrum of positive ions was obtained by electrospray. For a mass spectrum, a spectrum of a polyvalent ion was collectively converted to a molecular weight by using OpenLynx software by the MaxEnt technique, and a compound binding rate was obtained from the ratio of a signal intensity that corresponds to the molecular weight of a protein to a signal intensity that corresponds to the molecular weight of a compound binding to the protein.
By obtaining the compound binding rate for wt K-Ras4B (1-169) and the compound binding rate for G12C K-Ras4B (1-169) at the same time, information of the selectivity for G12C K-Ras4B (1-169) was obtained at the same time.
The test compounds were measured at their final compound concentration of 2 μM. […] Almost none of the compounds of the disclosure bound to wt K-Ras4B (1-169). The “binding rate” (%) for each of wt K-Ras4B (1-169) and G12C K-Ras4B (1-169) refers to the ratio of the signal intensity of bound forms to the sum of the signal intensity of non-bound forms and the signal intensity of bound forms.

IC50 (NCI-H358 cells) [nM] | IC50 (KRAS G12C) [nM] | Compound | also measured
22 | 5 | C=CC(=O)N1CC(NC(=O)c2c(Cl)nc(CNc3n[nH]c4cc(Cl)c(C(C)(C)C)cc34)n2[C@@H]2CCN(CC(F)F)C2)C1 [Example 113, (R)-N-(1-acryloylazetidin-3-yl)-2-(((5-(tert-butyl)-6-chloro-1H-indazol-3-yl)amino)methyl)-4-chloro-1-(1-(2,2-difluoroethyl)pyrrolidin-3-yl)-1H-imidazole-5-carboxamide] | –
– | – | C=CC(=O)N1CC(N2CCN(C(=O)CNc3cc(C4(C)CC4)c(Cl)cc3O)CC2)C1 [ARS-853] | binding to KRAS G12C [1]: binds to the cysteine of the G12C mutant of inactive KRAS (GDP); apoptosis induction [2]: inducing apoptosis
56 | 7 | C=CC(=O)N1CC(NC(=O)c2c(Cl)nc(CNc3n[nH]c4cc(Cl)c(C(C)(C)C)cc34)n2[C@H]2CCN(CC(F)F)C2)C1 [Example 115, (S)-N-(1-acryloylazetidin-3-yl)-2-(((5-(tert-butyl)-6-chloro-1H-indazol-3-yl)amino)methyl)-4-chloro-1-(1-(2,2-difluoroethyl)pyrrolidin-3-yl)-1H-imidazole-5-carboxamide] | –
– | – | C=CC(=O)N1CCN(c2ncnc3c(F)c(-c4c(O)cccc4F)c(Cl)cc23)CC1 [ARS-1620] | antitumor action [3]: exerts antitumor action

Compound | IC50 (NCI-H358 cells) [nM] | IC50 (KRAS G12C) [nM] | also measured
C=CC(=O)N1CC(NC(=O)c2cnc(CNc3n[nH]c4cc(Cl)c(Br)cc34)n2C)C1 [Reference Example 1, N-(1-acryloylazetidin-3-yl)-2-(((5-bromo-6-chloro-1H-indazol-3-yl)amino)methyl)-1-methyl-1H-imidazole-5-carboxamide, reference compound] | > 10000 | > 10000 | binding rate for G12C K-Ras4B (1-169) (G12C K-Ras4B (1-169)): E (a binding rate of less than 20% is rated “E.”)
